Measured values reported in US8633318B2, “Compounds for treatment or prevention of inflammation, an inflammatory disease, or an immune or an autoimmune disorder” (Proximagen Ltd, priority 2008, dated 2014).

Biological target: T1, human SSAO (Homo sapiens, UniProt Q16853)
T1 construct: made in house
T1 sequence (Q16853 29-763 limits assumed): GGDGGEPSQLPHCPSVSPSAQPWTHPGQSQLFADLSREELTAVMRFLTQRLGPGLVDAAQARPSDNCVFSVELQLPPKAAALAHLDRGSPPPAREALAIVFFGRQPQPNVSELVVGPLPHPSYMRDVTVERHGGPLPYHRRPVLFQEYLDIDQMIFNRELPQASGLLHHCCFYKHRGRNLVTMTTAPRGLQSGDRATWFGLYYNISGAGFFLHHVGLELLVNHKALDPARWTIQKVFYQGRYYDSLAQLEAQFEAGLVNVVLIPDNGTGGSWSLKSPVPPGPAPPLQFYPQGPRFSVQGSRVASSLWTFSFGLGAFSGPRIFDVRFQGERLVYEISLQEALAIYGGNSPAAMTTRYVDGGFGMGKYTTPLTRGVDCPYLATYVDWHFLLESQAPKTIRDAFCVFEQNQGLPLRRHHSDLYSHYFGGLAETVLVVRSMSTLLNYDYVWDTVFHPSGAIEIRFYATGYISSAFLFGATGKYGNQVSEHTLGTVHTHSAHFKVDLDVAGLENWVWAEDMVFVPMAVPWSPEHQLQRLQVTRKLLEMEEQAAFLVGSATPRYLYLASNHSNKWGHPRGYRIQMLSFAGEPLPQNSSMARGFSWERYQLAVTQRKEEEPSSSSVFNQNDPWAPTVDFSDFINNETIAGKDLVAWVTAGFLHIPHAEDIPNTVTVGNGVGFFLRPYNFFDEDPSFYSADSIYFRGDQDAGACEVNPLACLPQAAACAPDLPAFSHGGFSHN
Assay: SSAO enzyme inhibition assay (Amplex Red/HRP coupled, benzylamine substrate)
Format: biochemical
Conditions: purified recombinantly expressed human SSAO; benzylamine 100 μM; about 60 minutes pre-incubation; room temperature
Method: Biological Assay of the SSAO Enzyme Inhibitors
All assays were performed in room temperature with purified recombinantly expressed human SSAO. Enzyme was prepared essentially as described in Öhman et al. (Protein Expression and Purification 2006, 46, 321-331). The enzyme activity was measured with benzylamine as substrate and utilized the production of hydrogen peroxide for detection. In a horseradish peroxidise (HRP) coupled reaction, hydrogen peroxide oxidation of 10-acetyl-3,7-dihydroxyphenoxazine produced resorufin, which is a highly fluorescent compound (Zhout and Panchuk-Voloshina. Analytical Biochemistry 1997, 253, 169-174; Amplex® Red Hydrogen Peroxide/peroxidise Assay kit, Invitrogen A22188).
Briefly, test compounds were dissolved in dimethyl sulfoxide (DMSO) to a concentration of 10 mM. Dose-response measurements were assayed by either creating 1:10 serial dilutions in DMSO to produce a 7 point curve or by making 1:3 serial dilutions in DMSO to produce 11 point curves. […] Fluorescence intensity was then measured at several time points (15 minutes, 20 minutes and 30 minutes) exciting at 544 nm and reading the emission at 590 nm). […] The inhibition was measured as % decrease of the signal compared to a control without inhibitor (only diluted DMSO). […] Data was fitted to a four parameter logistic model and IC50 values were calculated using the GraphPad Prism 4 or XLfit 4 programs.

IC50	Compound
89 nM	Cc1ccc(-c2nn(C3CCOCC3)c3ccncc23)cc1 [Example 3, 3-(4-Methylphenyl)-1-(tetrahydro-2H-pyran-4-yl)-1H-pyrazolo[4,3-c]pyridine]
120 nM	Clc1ccc(-c2nn(C3CCNCC3)c3ccncc23)cc1 [Example 5, 3-(4-Chlorophenyl)-1-piperidin-4-yl-1H-pyrazolo[4,3-c]pyridine]
